Measured values from ChEMBL document CHEMBL1133251, “Synthesis and biological evaluation of 1-azabicyclo-[3.2.1]octanes: new dopamine transporter inhibitors” (Bioorg Med Chem Lett, 2000).

Legend:
[1] = target: T1, Sodium-dependent dopamine transporter (Rattus norvegicus, UniProt P23977); assay: Inhibition of [3H]DA binding to dopamine transporter of rat brain synaptosomes; assay type: subcellular
[2] = target: T1, Sodium-dependent dopamine transporter; assay: Inhibition of [3H]- Mazindol binding to dopamine transporter of rat striatal membrane.
[3] = target: Sodium-dependent serotonin transporter (Rattus norvegicus, UniProt P31652); assay: Inhibition of [3H]-5-HT binding to serotonin transporter of rat brain synaptosomes; assay type: subcellular
[4] = target: Norepinephrine transporter (Rattus norvegicus, UniProt Q9WTR4); assay: Inhibition of [3H]NE binding to norepinephrine transporter of rat brain synaptosomes; assay type: subcellular
Sequence of Norepinephrine transporter (Q9WTR4 whole entry): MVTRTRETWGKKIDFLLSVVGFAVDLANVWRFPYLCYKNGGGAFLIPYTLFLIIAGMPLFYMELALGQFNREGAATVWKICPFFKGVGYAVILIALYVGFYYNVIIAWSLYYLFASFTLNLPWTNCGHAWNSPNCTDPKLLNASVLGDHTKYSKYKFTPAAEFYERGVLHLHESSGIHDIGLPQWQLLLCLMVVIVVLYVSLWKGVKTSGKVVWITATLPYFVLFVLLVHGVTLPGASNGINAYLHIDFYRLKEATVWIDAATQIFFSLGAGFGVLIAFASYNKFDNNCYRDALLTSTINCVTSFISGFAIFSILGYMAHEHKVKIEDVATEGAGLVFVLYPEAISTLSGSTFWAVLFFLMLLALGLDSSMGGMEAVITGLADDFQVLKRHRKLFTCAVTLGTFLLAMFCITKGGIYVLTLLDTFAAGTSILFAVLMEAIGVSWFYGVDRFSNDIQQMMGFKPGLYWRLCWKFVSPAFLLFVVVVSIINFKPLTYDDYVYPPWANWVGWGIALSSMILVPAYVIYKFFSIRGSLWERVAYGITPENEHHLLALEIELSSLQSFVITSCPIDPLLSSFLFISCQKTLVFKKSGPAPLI

Sequence of Sodium-dependent serotonin transporter (P31652 whole entry): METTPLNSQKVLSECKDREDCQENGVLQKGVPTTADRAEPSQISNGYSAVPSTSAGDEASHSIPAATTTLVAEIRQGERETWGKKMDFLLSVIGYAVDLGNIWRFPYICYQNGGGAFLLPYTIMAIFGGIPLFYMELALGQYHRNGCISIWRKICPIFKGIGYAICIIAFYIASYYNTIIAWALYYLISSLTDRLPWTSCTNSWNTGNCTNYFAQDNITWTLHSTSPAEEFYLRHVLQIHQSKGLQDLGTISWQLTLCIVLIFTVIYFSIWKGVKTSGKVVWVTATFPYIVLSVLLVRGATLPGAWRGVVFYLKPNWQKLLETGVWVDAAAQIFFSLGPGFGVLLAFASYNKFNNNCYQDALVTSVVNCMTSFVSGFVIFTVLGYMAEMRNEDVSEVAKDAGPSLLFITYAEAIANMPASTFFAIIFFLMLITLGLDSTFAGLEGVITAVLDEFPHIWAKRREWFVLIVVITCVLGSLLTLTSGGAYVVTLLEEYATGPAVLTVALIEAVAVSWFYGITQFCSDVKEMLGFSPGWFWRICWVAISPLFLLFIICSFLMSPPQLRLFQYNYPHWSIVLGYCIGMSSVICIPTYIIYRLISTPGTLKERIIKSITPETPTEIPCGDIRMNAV
T1 sequence (P23977 whole entry): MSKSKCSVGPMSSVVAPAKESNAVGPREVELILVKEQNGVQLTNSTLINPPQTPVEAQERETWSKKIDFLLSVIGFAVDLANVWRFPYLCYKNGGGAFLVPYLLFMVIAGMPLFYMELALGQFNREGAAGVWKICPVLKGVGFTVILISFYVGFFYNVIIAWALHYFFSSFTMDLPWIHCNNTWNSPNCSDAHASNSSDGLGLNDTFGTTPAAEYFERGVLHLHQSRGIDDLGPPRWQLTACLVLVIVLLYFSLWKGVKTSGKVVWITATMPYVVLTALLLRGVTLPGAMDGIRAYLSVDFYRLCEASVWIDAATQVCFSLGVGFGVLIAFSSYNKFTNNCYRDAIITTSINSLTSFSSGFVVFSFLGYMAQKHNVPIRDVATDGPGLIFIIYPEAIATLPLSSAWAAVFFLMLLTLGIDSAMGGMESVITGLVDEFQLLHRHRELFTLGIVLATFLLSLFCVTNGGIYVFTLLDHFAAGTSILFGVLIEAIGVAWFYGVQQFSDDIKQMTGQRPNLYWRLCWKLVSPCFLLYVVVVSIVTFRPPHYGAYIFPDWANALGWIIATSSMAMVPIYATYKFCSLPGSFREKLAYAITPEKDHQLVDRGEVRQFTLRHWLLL

| SMILES | Ki [1] [nM] | Ki [2] [nM] | Ki [3] [nM] | Ki [4] [nM] |
| --- | --- | --- | --- | --- |
| COC(=O)C1CN(C)CCC1c1ccc(Cl)cc1 (single isomer, unassigned; (+)) | 228 | 248 | 5880 | 90 |
| CN1CCC(c2ccc(Cl)cc2)C(C(=O)OCCC(c2ccccc2)c2ccccc2)C1 (single isomer, unassigned; (+)) | 1160 | 420 | 2590 | 3140 |
| CN1CCC(c2ccc(Cl)cc2)C(C(=O)OCCCc2ccccc2)C1 (single isomer, unassigned; (+)) | 1420 | 1490 | 2160 | 72 |
| CC(C)(C)O/N=C1\CN2CC[C@@H](c3ccc(Cl)cc3)C1C2 (some centres undefined) | 725 | 641 | 137 | 287 |
| CO/N=C1/CN2CC[C@@H](c3ccc(Cl)cc3)C1C2 (some centres undefined) | – | – | > 2000 | 232 |
| CO/N=C1\CN2CC[C@@H](c3ccc(Cl)cc3)C1C2 (single isomer, unassigned; (+)) | – | – | 1790 | > 4000 |
| CO/N=C1\CN2CC[C@@H](c3ccc(Cl)cc3)C1C2 (stereo in doubt; (-)-7) | – | – | 2530 | 652 |
| Clc1ccc([C@@H]2CCN3C/C(=N\OCCCc4ccccc4)C2C3)cc1 (some centres undefined) | 41 | 53 | 292 | 483 |
| CO/N=C1\CN2CC[C@H](c3ccc(Cl)cc3)C1C2 (stereo in doubt; (+)-7) | – | – | 2640 | 871 |
| CO/N=C1\CN2CC[C@H](c3ccc(Cl)cc3)C1C2 (stereo in doubt; (-)-6) | – | – | 503 | 305 |
| CN1CCC(c2ccc(Cl)cc2)C(C(=O)OCCCCCc2ccccc2)C1 (single isomer, unassigned; (+)) | 53 | 52 | 1790 | 382 |
| CO/N=C1/CN2CC[C@H](c3ccc(Cl)cc3)C1C2 (some centres undefined) | – | – | 856 | 240 |
| Clc1ccc([C@@H]2CCN3C/C(=N\OCc4ccccc4)C2C3)cc1 (some centres undefined) | 1860 | – | 117 | 1550 |
